Data: paper PMC12948284, “Halorotetin B, A Novel Terpenoid Compound Derived from Marine Ascidian, Suppresses Tumor Growth by Targeting the Cell Cycle Regulator UBE2C” (Advanced Science, 2025)

Assays:
recombinant human UBE2C [1] = target: T1, recombinant human UBE2C (Homo sapiens, UniProt O00762); assay: surface plasmon resonance, […] Langmuir fit; format: binding
T1 sequence (O00762 2-179): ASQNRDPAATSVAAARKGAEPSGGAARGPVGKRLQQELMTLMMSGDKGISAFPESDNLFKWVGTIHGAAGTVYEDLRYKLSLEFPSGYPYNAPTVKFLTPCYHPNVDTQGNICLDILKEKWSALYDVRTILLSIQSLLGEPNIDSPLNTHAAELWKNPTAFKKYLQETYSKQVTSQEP

[2] = target: T2, GFP-tagged UBE2C (pcDNA3.1-eGFP-UBE2C) (Homo sapiens, UniProt O00762); assay: CETSA, heated at […] °C for […] min; format: cell-based; settings: cells treated with Halorotetin B 24 h before purification
T2 sequence (O00762 2-179): T1 sequence (O00762 2-179)

[3] = target: T3, UBE2C (endogenous, HCC cells) (Homo sapiens, UniProt O00762); assay: cellular thermal shift assay, Western blot; format: cell-based; settings: 20 µM, 24 h
T3 construct: endogenous protein in hepatocellular carcinoma cells, detected by Western blot (anti-UBE2C EPR-23165-31)
T3 sequence (O00762 2-179): T1 sequence (O00762 2-179)

recombinant human UBE2C [4] = target: T1, recombinant human UBE2C; assay: ubiquitylation kit, ubiquitin chain / E2-Ub formation, Western blot; format: biochemical; settings: 37 °C, 4 h; source of E2 not told

For `CC(=O)/C=C/C=C(/C)C#CC1=C(C)C[C@@H](O)CC1(C)C` [Halorotetin B], the Kd (recombinant human UBE2C [1]) was 6.71 µM, the “CETSA, heated at 77 °C for 10 min” value [2] was “The thermal stabilization of wide type UBE2C and Ser51‐mutant UBE2C” and the “cellular thermal shift assay, Western blot” value [3] was “UBE2C exhibited significant thermal stabilization upon Halorotetin B treatment”. For the same compound, the “ubiquitylation kit, ubiquitin chain / E2-Ub formation, Western blot” value (recombinant human UBE2C [4]) was “Halorotetin B significantly suppressed the enzymatic activity of UBE2C protein”.
